Assay results from patent US11919858B2, “Aminonapthoquinone compounds and pharmaceutical composition for blocking ubiquitination-proteasome system in diseases” (Calgent Biotechnology Co., Ltd., priority 2015, dated 2024).
Where two headings read alike, the source gives them in different places.

What was measured:
[1] = test system: human A2780 ovarian adenocarcinoma; assay: Human A2780 ovarian cancer xenograft in female nude mice (TMU-A2780-e0001); assay type: in vivo
[2] = test system: HCT116 human colorectal adenocarcinoma; conditions: for Logrank Significance: compared to Group 1
Description: MPT0L056 was used to evaluate for activity against the HCT116 human colorectal adenocarcinoma.
However, MPT0E028 was administered orally (p.o.) in 1.0% CMC and 0.5% Tween 80 and given dose at 25 mg/kg daily to end schedule.
Each animal was euthanized when the tumors reached the predetermined endpoint size of 1,000 mm^3. The time to endpoint (TTE) for each mouse was calculated by the following equation:
[formula] where TTE is expressed in days, endpoint volume is in mm^3, b is the intercept, and m is the slope of the line obtained by linear regression of a log-transformed tumor growth data set. The data set is comprised of the first observation that exceeded the study endpoint volume and the three consecutive observations that immediately preceded the attainment of the endpoint volume. The calculated TTE is usually less than the day on which an animal is euthanized for tumor size. […] An animal classified as having died from treatment-related (TR) causes or non-treatment-related metastasis (NTRm) causes was assigned a TTE value equal to the day of death. An animal classified as having died from non-treatment-related (NTR) causes was excluded from TTE calculations.
Treatment efficacy was determined from tumor growth delay (TGD), which is defined as the increase in the median TTE for a treatment group compared to the control group: TGD=T−C, expressed in days, or as a percentage of the median TTE of the control group:
[formula] where: • T=median TTE for a treatment group, • C=median TTE for control Group 1.
Treatment efficacy was also determined from the tumor volumes of animals remaining in the study on the last day, and from the number of regression responses. The MTV(n) is defined as the median tumor volume on D59 in the number of animals remaining, n, whose tumors have not attained the endpoint volume.
Treatment may cause a partial regression (PR) or a complete regression (CR) of the tumor in an animal. […] An animal with a CR at the termination of a study is additionally classified as a tumor-free survivor (TFS).
Animals were weighed daily for the first five days, then twice weekly until the completion of the study. The mice were examined frequently for overt signs of any adverse, drug-related side effects. Acceptable toxicity for the MTD of cancer drugs is defined as a group mean BW loss of 20% or less during the test, and not more than one TR death among ten animals. A death is classified as TR if there is evidence of treatment side effects from clinical signs and/or necropsy or from unknown causes during dosing period or within 10 days of the last dose. A death is classified as NTR if there is no evidence that the death was related to treatment side effects.
The logrank test was used to determine the statistical significance of the difference between the TTE values of two groups, except any NTR deaths. Statistical and graphical analyses were performed with Prism 3.03 (GraphPad) for Windows. The two-tailed statistical analyses were conducted at P=0.05. Kaplan-Meier plots show the percentage of animals remaining in the study versus time. The Kaplan-Meier plots use the same data set as the log rank test. The tumor growth curves show the group median tumor volume, on a log scale as a function of time.

[3] = test system: IL-6 production in murine RAW264.7 macrophage cells; assay: IL-6 production in LPS-stimulated RAW264.7 macrophage cells (ELISA); assay type: cell-based; conditions: Mus musculus, RAW 264.7 cells, pretreated 1 h, LPS (25 ng/mL) 24 h
Description: Cell culture. The RAW264.7 mouse macrophage cells were purchased from the Bioresource Collection and Research Center (Hsinchu, Taiwan) and the cells cultured at 37° C. in 5% CO2/95% air in, respectively, 90% Ham's F-12 or Dulbecco's modified Eagle medium, both containing 10% heat-inactivated fetal bovine serum (FBS) (Invitrogen Life Technologies, Carlsbad, CA) and 1% penicillin/streptomycin (Biological Industries, Israel).
IL-6 Determination. To determine the effect of MPT0L056 on the production of cytokine IL-6 from LPS-stimulated cells, RAW 264.7 cells (1×10^6) were plated and pretreated in the presence or absence of MPT0L056 for 1 h, and then stimulated with LPS (25 ng/mL) for 24 h at 37° C. Supernatants were collected and the concentration of cytokines IL-6 was measured by ELISA kit.

Hep 3B = assay: Growth inhibition assay; assay type: cell-based; conditions: Homo sapiens, Hep3B; Hep 3B (Liver cancer), 48 hours; read-out: GI50
Description: (§1) Cells were seeded in 96-well plastic plates and exposed to MPT0L056 for 48 hours. Cell viability was assessed using the 3-(4,5-dimethylthiazol-2-yl)-2,5-diphenyltetrazolium bromide assay. Growth inhibition was expressed as the percentage of surviving cells in drug-treated versus DMSO-treated control cells.
(§2) The compounds of the invention were subjected to growth inhibition assay.

HCT-116 = assay: Growth inhibition assay; assay type: cell-based; conditions: Homo sapiens; HCT-116 (Colorectal cancer), 48 hours; read-out: GI50
Description: as §1, §2

HL-60 = assay: Growth inhibition assay; assay type: cell-based; conditions: Homo sapiens; HL-60 (Leukemia), 48 hours
Description: as §1, §2

MDA-MB-231 = assay: Growth inhibition assay; assay type: cell-based; conditions: Homo sapiens; MDA-MB-231 (Breast cancer), 48 hours; read-out: GI50
Description: as §1, §2

[4] = Group 1 vs 4: MPT0L056 100 mg/kg
[5] = Group 4: MPT0L056 100 mg/kg po qd to endpoint
[6] = Group 5: MPT0L056 50 mg/kg po qd to endpoint
[7] = Group 7: MPT0L056 100 mg/kg po qd + MPT0E028 25 mg/kg po qd to endpoint
[8] = Group 8: MPT0L056 50 mg/kg po qd + MPT0E028 25 mg/kg po qd to endpoint

O=C(Nc1ccncc1)c1ccc(CNC2=C(Cl)C(=O)c3ccccc3C2=O)cc1 [MPT0L056]
antitumor activity ([1]; MPT0L056 50 mg/kg (so in the source) p.o. once every day to the end): but not 50 mg/kg (P>0.05) produced significant antitumor activity
antitumor activity ([1]; MPT0L056 200 mg/kg p.o. once every day to the end): produced significant antitumor activity
body weight change ([1]; MPT0L056 100 and 200 mg/kg, FIG. 8): did not significantly affect the animal body weight
Hazard Ratio [2, 4]: 4.135
Median survival [2, 4]: 48.55
Median survival Ratio [2, 4]: 0.4876
Hazard Ratio ([2]; Group 1 vs 5: 50 mg/kg): 1.959
Median survival ([2]; Group 1 vs 5: 50 mg/kg): 29.95
Median survival Ratio ([2]; Group 1 vs 5: 50 mg/kg): 0.7579
Day of Max % BW Loss [2, 5]: 6 days
MTV (n) Day 59 [2, 5]: 160 mm^3
Max % BW Loss [2, 5]: −2.3%
Median TTE [2, 5]: 48.5 days
No. of NTR [2, 5]: 0
No. of TR [2, 5]: 0
T-C [2, 5]: 25.8 days
antitumor activity (logrank analysis) [2, 5]: produced significant antitumor activity
% TGD ([2]; Group 4: MPT0L056 100 mg/kg po qd to endpoint, 100 mg/kg): 114%
Logrank Significance [2, 5]: ** (** = P < 0.01)
Day of Max % BW Loss [2, 6]: 5 days
MTV (n) Day 59 [2, 6]: 975 mm^3
Max % BW Loss [2, 6]: −3.8%
Median TTE [2, 6]: 30.0 days
No. of LTTFS [2, 6]: 0
No. of NTR [2, 6]: 2
No. of TR [2, 6]: 0
T-C [2, 6]: 7.3 days
antitumor activity (logrank analysis) [2, 6]: but not 50 mg/kg (P=0.2087), produced significant antitumor activity
% TGD ([2]; Group 5: MPT0L056 50 mg/kg po qd to endpoint, 50 mg/kg): 32%
% TGD [2, 7]: 50%
Day of Max % BW Loss [2, 7]: 5 days
Max % BW Loss [2, 7]: −8.4%
Median TTE [2, 7]: 34.0 days
No. of CR [2, 7]: 0
No. of LTTFS [2, 7]: 0
No. of NTR [2, 7]: 0
No. of PR [2, 7]: 0
No. of TR [2, 7]: 0
T-C [2, 7]: 11.3 days
% TGD [2, 8]: 100%
Day of Max % BW Loss [2, 8]: 3 days
Max % BW Loss [2, 8]: −9.5%
Median TTE [2, 8]: 45.3 days
No. of LTTFS [2, 8]: 0
T-C [2, 8]: 22.6 days
synergistic effect of antitumor activity (logrank analysis) [2, 8]: significant synergistic effect of antitumor activity
Logrank Significance [2, 8]: ** (** = P < 0.01)
IC50 [3]: 1210 nM
GI50 (Hep 3B): 1400 nM
GI50 (HCT-116): 4300 nM
GI50 (HL-60): 1600 nM
GI50 (MDA-MB-231): 2900 nM
